“And” between values parts separate entries of the source, which are not always exact repeats. Equal entries are not always repeated.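 Dose response: 5 concentrations. Exposure: 48 h. Format: 96-well plates. Endpoint: linear interpolation; highest concentration if not reached. The concentration for 50% growth inhibition is given as GI50. TGI marks complete inhibition of growth.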
What was measured:
Assay in all cases: inhibition of tumour cell growth, NCI panel, 48 h
SK-OV-3 ovarian = tested on: SK-OV-3 ovarian
SK-MEL-2 melanoma = tested on: SK-MEL-2 melanoma
HCC-2998 colon = tested on: HCC-2998 colon
HS 578T breast = tested on: HS 578T breast
HCT-15 colon = tested on: HCT-15 colon
HL-60(TB) leukemia = tested on: HL-60(TB) leukemia
OVCAR-8 ovarian = tested on: OVCAR-8 ovarian
CAKI-1 renal = tested on: CAKI-1 renal

SMILES | GI50 (SK-OV-3 ovarian) | TGI (SK-OV-3 ovarian) | GI50 (SK-MEL-2 melanoma) | TGI (SK-MEL-2 melanoma) | GI50 (HCC-2998 colon) | TGI (HCC-2998 colon) | GI50 (HS 578T breast) | TGI (HS 578T breast) | GI50 (HCT-15 colon) | TGI (HCT-15 colon) | GI50 (HL-60(TB) leukemia) | TGI (HL-60(TB) leukemia) | GI50 (OVCAR-8 ovarian) | TGI (OVCAR-8 ovarian) | GI50 (CAKI-1 renal) | TGI (CAKI-1 renal)
CNC(=O)c1cccc(-c2ccc3c(N4CCOC[C@@H]4C)nc(N4CCOC[C@@H]4C)nc3n2)c1 | 0.0333 µM and 0.0903 µM and 0.0446 µM | 0.479 µM and 0.451 µM and 0.438 µM | 0.0889 µM and 0.216 µM and 0.215 µM | 5.47 µM and 1.16 µM and 0.912 µM | 0.221 µM and 0.43 µM and 0.182 µM | > 100 µM and > 10 µM and 36.6 µM | 0.0627 µM and 0.0618 µM and 0.116 µM | 0.448 µM and 0.32 µM and 0.459 µM | 0.0909 µM and 0.267 µM and 0.16 µM | > 100 µM | 0.353 µM and 0.37 µM and 2.91 µM | 25.2 µM and > 10 µM and 64.1 µM | 0.162 µM and 0.313 µM and 0.164 µM | 27.7 µM and > 10 µM and 3.42 µM | 0.0693 µM and 0.148 µM and 0.144 µM | 1.83 µM and > 3.36 µM
COc1cc2c(/C=C3/C(=O)Nc4ccccc43)c(Cl)n(Cc3ccccc3[N+](=O)[O-])c2cc1C | 14.8 µM | 32.5 µM | 12.9 µM | 40.5 µM |  |  | 15 µM | 94 µM | 6.6 µM | 26.7 µM | 4.78 µM | > 100 µM | 26.1 µM | > 100 µM | 6.39 µM | 23.3 µM
CN(C)c1ccc2c3c(c(=O)oc2c1)CCC3 |  |  |  | > 100 µM |  | > 100 µM |  | > 100 µM |  | > 100 µM |  | > 100 µM |  | > 100 µM |  | > 100 µM
S=C(Nc1ccc(Cl)cc1)Nc1ccc(-c2nc3ccccc3[nH]2)cc1 | 17.7 µM | > 100 µM |  |  | 1.39 µM | 2.69 µM | 6.49 µM | 60.6 µM | 3.82 µM | 12.9 µM | 7.26 µM | > 66 µM | 14.3 µM | > 59.7 µM | 2.7 µM | 12.5 µM
CC(C)(O)C1OCC(C2CCC3(C)C4=CCC5C(C)(C)C(O)CCC5(C)C4CCC23C)CC1O (stereo not given) |  | 31.5 µM |  | 48.7 µM |  | 30.1 µM |  | 29.3 µM |  | 28 µM |  | > 100 µM |  | 27.9 µM |  | 29.4 µM
Cn1c(=O)c2[nH]c(CS(=O)(=O)Cc3nc4c([nH]3)c(=O)n(C)c(=O)n4C)nc2n(C)c1=O |  | > 100 µM |  | > 100 µM |  |  |  | > 100 µM |  | > 100 µM |  | > 100 µM |  | > 100 µM |  | > 100 µM
CC(=O)OC(C)(C)/C=C/C(=O)[C@](C)(O)[C@H]1[C@H](O)C[C@@]2(C)[C@@H]3CC=C4[C@@H](C[C@H](O)C(=O)C4(C)C)[C@]3(C)C(=O)C[C@]12C |  | < 0.0234 µM |  | < 0.01 µM |  | 4.45 µM |  | < 0.01 µM |  | 4.99 µM |  | < 0.01 µM |  | 5.8 µM |  | < 0.01 µM
C=C1C(=O)OC2CC3(CO3)C3C(O)C(O)CC3(C)CC12 (stereo not given) |  | > 100 µM |  | 38.4 µM |  | 33.9 µM |  | > 100 µM |  | 34.1 µM |  | 44.6 µM |  | 45.3 µM |  | 36.6 µM
CCN(CC)CCOc1ccc(/C=C2\CC3C4CC=C5C[C@@H](N6CCCC6)CC[C@]5(C)C4CC[C@]3(C)[C@H]2O)cc1OC (stereo not given in full) | 27.2 µM | > 70.8 µM | 9.64 µM | > 100 µM | 1.71 µM | 4.79 µM | 0.76 µM | 13.6 µM | 3.45 µM | 22.4 µM | 13.8 µM | 35.2 µM | 5.16 µM | > 40.8 µM | 16.3 µM | 46.1 µM
O=C1C(=O)c2ccccc2C(O)=C1C(CCc1ccccc1)C1=C(O)c2ccccc2C(=O)C1=O |  | > 100 µM |  | > 100 µM |  |  |  | > 100 µM |  | > 100 µM |  | 15.4 µM |  | > 100 µM |  | > 100 µM
COc1ccc(-c2nc(-c3cn(C)c4ncccc34)cs2)cc1 | > 100 µM | > 100 µM | 55.3 µM | > 100 µM | 80.6 µM | > 100 µM | > 100 µM | > 100 µM | 25.3 µM | > 100 µM | 9.11 µM | > 100 µM | > 100 µM | > 100 µM | 18.2 µM | > 100 µM
O=C(NC(=S)Nc1ccc(Cl)cc1)c1ccccc1 | > 100 µM | > 100 µM | > 100 µM | > 100 µM | > 100 µM | > 100 µM | 38.8 µM | > 100 µM | > 100 µM | > 100 µM | > 100 µM | > 100 µM | > 100 µM | > 100 µM | > 79.7 µM | > 100 µM
C=C(CN1CCc2ccccc2C1)c1ccc(C(=O)Nc2ccc(N)cc2)cc1 | 19.5 µM | 53.7 µM | 24.4 µM | > 100 µM | 14.6 µM | 43 µM | 29.8 µM | > 100 µM | 32.2 µM | > 100 µM | 7.07 µM | 36.7 µM | 22.6 µM | 77.7 µM | 19.6 µM | > 100 µM
CC1(C)N=C(N)N=C(N)N1c1cc(Cl)ccc1Cl | > 100 µM | > 100 µM | > 100 µM | > 100 µM | > 100 µM | > 100 µM |  |  | > 100 µM | > 100 µM | 74.7 µM | > 100 µM | > 100 µM | > 100 µM |  | 
C[C@]12CC[C@@H]3c4ccc(O)cc4CC[C@H]3[C@@H]1CC[C@@H]2NS(=O)(=O)Cc1ccc(Cl)cc1 | 3.02 µM | 7.77 µM | 2.54 µM | 6.35 µM | 2.99 µM | 8.14 µM | 2.4 µM | 7.46 µM | 2.33 µM | 7.76 µM | 3.26 µM | 14.5 µM | 2.52 µM | 7.58 µM | 3.06 µM | 11.2 µM
O=C1C=Cc2ccccc2/C1=C/c1[nH]c(=O)[nH]c1O | 3.66 µM | 23.2 µM | 2.97 µM | 8.71 µM | 7.43 µM | > 100 µM |  |  | 7.44 µM | > 100 µM | 3.44 µM | > 100 µM | 9.6 µM | 62.5 µM | 5.7 µM | 42.7 µM
O=C1OC(=O)C2C1C1(c3ccccc3)C(c3ccccc3)=C(c3ccccc3)C2(c2ccccc2)S1=O (stereo not given) | > 100 µM | > 100 µM | > 100 µM | > 100 µM | > 100 µM | > 100 µM |  |  | > 100 µM | > 100 µM | > 100 µM | > 100 µM | > 100 µM | > 100 µM | > 100 µM | > 100 µM
Cc1ccc2c(N)c(C(=O)N[C@H]3CCc4cc(N5CC6CCC(C5)N6)ccc4C3)sc2n1 | 0.422 µM | 2.99 µM | 0.44 µM | 1.29 µM | 0.342 µM | 2.08 µM | 0.58 µM | 2.44 µM | 0.34 µM | 2.36 µM | 0.172 µM | 1.31 µM | 0.385 µM | 2.83 µM | 0.357 µM | 2.96 µM
